Experiments:
Format in all cases: cell-based, human
[1] = system: Leukemia cell lines; assay: NCI 60 five-dose screen, leukemia panel
Experimental: National Cancer Institute Cancer Cell Line (NCI 60) Screen of DefNEtTrp. Details of the methodology for NCI 60 cell line screening are described at http://dtp.nci.nih.gov/branches/btb/ivclsp.html. The cells, grown in supplemented RPMI-1640 medium, are seeded in 96 well plates at an appropriate density and incubated for 24 h. The test compounds are dissolved in DMSO and incubated with cells at a single dose of 10.0 μM for 48 h. The assay is terminated by addition of cold trichloroacetic acid, and the cells are fixed and stained with sulforhodamine B. Bound stain is solubilized, and the absorbance is read on an automated plate reader. […] Using the seven absorbance measurements [time zero, […], control growth, (C), and test growth in the presence of drug at the five concentration levels (Tf)], the percentage growth was calculated at each of the drug concentrations levels as: [(Tf−Ti)/(C−Ti)]×100 for concentrations for which Tf≥Ti and [(Tf−Ti)/Ti]×100 for concentrations for which Tf<Ti. Three-dose response parameters (GI50, TGI, and LC50) were calculated for each of the experimental agents in five dose assay. Growth inhibition of 50% (GI50) was calculated from 100×[(Tf−Ti)/(C−Ti)]=50, which was the drug concentration resulting in a 50% reduction in the net protein increase (as measured by sulforhodamine B, SRB staining) in control cells during the drug incubation. The total growth inhibition (TGI) was calculated from Tf=Ti, which was the drug concentration resulting in total growth inhibition and signified the cytostatic effect. The 50% cellular death (LC50) was calculated from 100×[(Tf−Ti)/Ti]=−50, indicating a net loss of cells following treatment which indicated the concentration of drug resulting in a 50% reduction in the measured protein at the end of the drug treatment as compared to that at the beginning. […] Log GI50, log TGI, and log LC50 are the logarithm molar concentrations producing 50% growth inhibition (GI50), a total growth inhibition (TGI), and a 50% cellular death (LC50), respectively.

[2] = system: CNS cancer cell lines; assay: NCI 60 five-dose screen, CNS panel; conditions: 48 h
Experimental: (§1) National Cancer Institute Cancer Cell Line (NCI 60) Screen of DefNEtTrp. Details of the methodology for NCI 60 cell line screening are described at http://dtp.nci.nih.gov/branches/btb/ivclsp.html. The cells, grown in supplemented RPMI-1640 medium, are seeded in 96 well plates at an appropriate density and incubated for 24 h. The test compounds are dissolved in DMSO and incubated with cells at a single dose of 10.0 μM for 48 h. The assay is terminated by addition of cold trichloroacetic acid, and the cells are fixed and stained with sulforhodamine B. Bound stain is solubilized, and the absorbance is read on an automated plate reader. […] Using the seven absorbance measurements [time zero, […], control growth, (C), and test growth in the presence of drug at the five concentration levels (Tf)], the percentage growth was calculated at each of the drug concentrations levels as: [(Tf−Ti)/(C−Ti)]×100 for concentrations for which Tf≥Ti and [(Tf−Ti)/Ti]×100 for concentrations for which Tf<Ti. Three-dose response parameters (GI50, TGI, and LC50) were calculated for each of the experimental agents in five dose assay. […] The total growth inhibition (TGI) was calculated from Tf=Ti, which was the drug concentration resulting in total growth inhibition and signified the cytostatic effect. […]

[3] = system: Melanoma cell lines; assay: NCI 60 five-dose screen, melanoma panel; conditions: 48 h
Experimental: as §1

[4] = system: Prostate cancer cell lines; assay: NCI 60 five-dose screen, prostate panel; conditions: 48 h
Experimental: as §1

[5] = system: MRC-5 noncancer lung cell line; assay: MRC-5 cell viability (MTT assay); conditions: concentration range examined, maximum 100 μM; 72 h
Experimental: MRC-5 cell viability studies. A thawed stock of MRC-5 cells was washed with 1×PBS and resuspended in phenol red DMEM media (supplemented with 10% FBS and 1% penicillin-streptomycin) and then seeded in a 100 mm×20 mm (complete, O.D.×H) petri dish and grown in a 5% (v/v) CO2 humidified atmosphere at 37° C. At least three passages were performed to ensure the integrity of the cells. After this point, cells were collected, thoroughly washed with 1×PBS, and then resuspended in phenol red-free DMEM (supplemented with 10% FBS, 1% penicillin-streptomycin, and 2.4 mM L-glutamine) at a 2.0×10^5 cells/mL concentration. A volume of 50 μL of cells was seeded into 96-well plates. Cells were incubated for 24 h. Stock solutions of DefNEtTrp were prepared fresh in DMF at concentrations of 20,000, 10,000, 5,000, 2,000, 1000, 200, 80, and 40 μM. The solutions were diluted 100-fold in 1×PBS to obtain a second set of stock solutions with 1% DMF(v/v). The MRC-5 cells were treated with 50 μL of DefNEtTrp compound solution from the second set of stock solutions to obtain final concentrations of 100, 50, 25, 10, 5, 1, 0.4, and 0.2 μM with 0.5% DMF (v/v). Control wells were the same type of controls as in the Jurkat cell work. Cells were incubated for 68 h and the MTT assay was performed exactly as described for the Jurkat cells.

[6] = system: red blood cells; assay: CO-ADD hemolysis assay; conditions: up to a concentration of 50.3 μM; human red blood cells, 1 h at 37° C.
Experimental: CO-ADD hemolysis assay. Dry compounds ranging from 1-2 mg were delivered to the CO-ADD. The compounds were solubilized to a stock concentration of 10 mg/mL in DMSO. Samples were serially diluted 1:2 fold in water to final testing concentrations of […] while keeping the final DMSO concentration to a maximum of 0.32% (v/v). Each sample concentration was prepared in polypropylene 384-well plates (Corning 3657) for hemolysis assays, all in two duplicate plates (n=2). All sample preparation was conducted using liquid handling robots. Human whole blood (Australian Red Cross) was washed three times with three volumes of 0.9% NaCl (w/v) and resuspended in a concentration of […], determined by manual cell count in a Neubauer hemocytometer. Washed cells were added to the compound-containing plates for a final volume of 50 μL. After a 10 min shake on a plate shaker the plates were then incubated for 1 h at 37° C. After incubation, the plates were centrifuged at 1000 g for 10 min to pellet cells and debris, 25 μL of the supernatant was then transferred to reading plates (384 well, polystyrene plated (PS), Corning CLS3680), with hemolysis determined by measuring the supernatant absorbance at […] (OD405) using a Tecan M1000 Pro monochromator plate reader. HC10 and HC50 (concentration at 10% and 50% hemolysis, respectively) were calculated by curve fitting the inhibition values vs. log(concentration) using a sigmoidal dose-response function with variable fitting values for the top, bottom, and slope. The maximal percentage of hemolysis is reported as Dmax. Hemolysis samples are classified by HC10≤32 μg/mL. […] Melittin was used in 8 concentrations in 2-fold serial dilutions with 50 µg/mL being the highest concentration.

[7] = cell lines in which TGI was observed
[8] = Homo sapiens, read-out: GI50 (calculated average)

For `Nc1cccnc1/C=N/NC(=S)NCCNC(=O)c1ccc(-n2nc(-c3ccccc3O)nc2-c2ccccc2O)cc1` [DefNEtTrp, deferasirox nitrogen ethyl triapine], the GI50 ([1]; Homo sapiens, Leukemia, five-dose, 48 h, read-out: GI50 (calculated average)) was 290 nM, the “TGI (calculated average)” value ([1]; Leukemia, five-dose, 48 h, cell lines in which TGI was observed) was 1.78 µM and the “antiproliferative behavior against all leukemia cell lines in the NCI screen” value ([1]; NCI screen) was ~100%. The “TGI (calculated average)” value [2, 7] was 12.43 µM, the GI50 [2, 8] was 500 nM and the “TGI (calculated average)” value [3, 7] was 4.73 µM. The GI50 [3, 8] was 610 nM, the “TGI (calculated average)” value [4, 7] was 18.2 µM and the GI50 [4, 8] was 1140 nM. For the same compound, the “antiproliferative behavior against MRC-5” value [5] was “no antiproliferative behavior” and the hemolysis [6] was ~5%.

— patent US20260055081A1, “Metal Chelator Compounds, Coordination Complexes, and Methods of Preparation and Use Thereof” (University of Puerto Rico, priority 2022, published 2026)
